Laboratory results taken from EP2487185A1, “Hexapeptide with improved activity in the repair of cellular DNA of dermal cells” (Clinuvel Pharmaceuticals Limited, priority 2011, dated 2012).
Non-standard residues stand in square brackets, D forms with d. Nle = CCCC[C@H](N)C(=O)O

Experiments:
Type in all cases: cell-based, human
[1] = system: strains 1505b and 1513c; test: Cell proliferation as a measure of stability, overall; details: all experiments on both strains 1505b and 1513c
Method: (§1) With continued reference to Figs. 7, 8 and 9, to determine the stability of CUV9900 versus that of NDP-MSH and α-MSH, melanocytes were treated with 1 nM of each peptide, namely with CUV9900, NDP-MSH and α-MSH, for a total of 6 days, or with 1 nM peptides that were incubated for 5 hours at 37 °C prior to addition to the cultures, every other day, for a total of 6 days. Tyrosinase activity was measured at the end of treatment. In the experiments, cell number represents the mean percent of control of 3 determinations/ group ±SE, and tyrosinase activity data represent the mean percent of control of 6 determinations ±S.E. It should be noted that for the sake of reproducibility the experiment of strain 1513c of Fig. 9 was performed once more 6 months later than the experiment of Fig. 7.
Peptides were incubated at 37 degrees Celsius for 5 hours and then split into groups. Cell proliferation was a measure of stability, whereby the experiments on strain 1513c were divided in period 1 and 2 under standard conditions.

[2] = system: strains 1505b and 1513c; test: Tyrosinase activity as a measure of stability, overall
Method: as §1
Melanocytes were treated for 3 days with the designated concentrations of CUV9900, NDP-MSH, or MSH, then maintained in absence of peptides for 4 days. Tyrosinase activity was determined 3 days after treatment.

[3] = system: lightly pigmented strain 1563c and strain 102b; test: Ultrastructural visualization of DOPA-stained HM (electron microscopy); details: 0.1 nM or 1 nM CUV9900 or 1 nM MSH; strains 1563c and 102b
Method: With reference to Figs. 14 and 15, two melanocytic strains, a lightly pigmented strain 1563c of Fig. 14 and strain 102b of Fig. 15 were plated in 4-well chamber slides and treated […] with either 0.1 nM or 1 nM CUV9900 or 1 nM MSH for a total of 6 days. Cells were processed for electron microscopy in the presence or absence of histochemical reaction with DOPA. Microtome sections were analyzed in a JEOL JEM-1230 transmission electron microscope and photomicrographs (15,000 X) of the perinuclear area and dendrites were taken for each experimental group.

[4] = system: melanocyte strain 103c; test: UV-induced apoptosis by Annexin Va staining, flow cytometry; details: 1 nM, 4 days prior and 1 day following 105 mJ/cm^2 UV
Method: With reference to Fig. 12 and 13, melanocytes were maintained for the duration of the experiment in medium lacking bovine pituitary extract (BPE) to determine the survival effect of α-MSH or its analogs in the absence of the anti-apoptotic effect of TPA. Melanocytes were treated with 0, 1 nM α-MSH, 1 µM Forskolin, or 1 nM NDP-MSH or CUV9900 for 4 days prior to, and 24 h after exposure to a dose of 105 mJ/cm^2 UV, then stained for Annexin Va staining. The data are represented as percent increase above control, with triplicate dishes included in each group.
Comparison of the effect of CUV9900, NDP-MSH and MSH on the UV-induced apoptosis were made in the melanocyte strains 103c and melanocyte strain 1513c of Figs. 12 and 13, respectively. Both strains were treated with 1 nM CUV9900, NDP and MSH, respectively for 4 days prior and 1 day following irradiation. Floating as well as attached cells were harvested and stained for Annexin V, and analyzed by flow cytometry.

[5] = system: melanocyte strain 1505b; test: Tyrosinase activity, dose-response, 6 days treatment
Method: Dose-response experiments were carried out on another adult strain 102b which is shown in Fig. 6 and on the strain 1505b which is a melanocyte strain: melanocytes were treated with 0.001-10 nM CUV9990 or NDP-MSH, or 0.1-10 nM MSH for a total of 6 days, with the culture medium changed and fresh peptide added every other day. Cell numbers as well as tyrosinase activity were then determined. Tyrosinase activity was calculated first at activity/10^6 cells, and then as % of control. Twenty-four hours prior the end of the experiment, melanocytes received ^3H-tyrosinase (0.7 µCi/ml medium). The conditioned medium from each dish was collected to be assayed for tyrosinase activity, and the cell numbers were determined using a Coulter Counter. Triplicate dishes were included in each group, and duplicate samples from each dish were assayed for tyrosinase activity. Each data point is the mean percent of control of 6 determinations/group ±S.E.

Ac-Nle-Glu His-D-Phe-Arg-Trp-NH2 (Ac-[Nle]EH[dF]RW-NH2; SMILES CCCC[C@H](NC(C)=O)C(=O)N[C@@H](CCC(=O)O)C(=O)N[C@@H](Cc1c[nH]cn1)C(=O)N[C@H](Cc1ccccc1)C(=O)N[C@@H](CCCNC(=N)N)C(=O)N[C@@H](Cc1c[nH]c2ccccc12)C(N)=O) [CUV9900, hexapeptide, alpha-MSH analogue]
more cell proliferation and stability than MSH [1]: 2.9%
more cell proliferation and stability than NDP-MSH [1]: 4.0%
superior tyrosinase activity in comparison to MSH [2]: 42.5%
superior tyrosinase activity in comparison to NDP-MSH [2]: 19.8%
melanosomes, electron microscopy [3]: increased mature (stage IV) melanosomes in the perinuclear area and more so in dendrites
anti-apoptotic effect (UV-induced apoptosis, Annexin V) [4]: equal anti-apoptotic effect than NDP-MSH
effect on tyrosinase activity, comparison with NDP-MSH [5]: equivalent to that of NDP-MSH
minimal effective dose (tyrosinase activity) ([5]; 6 days treatment): 1 pM
